Results as given in patent US9302999B2, “Substituted triazoles as herbicides” (E. I. DU PONT DE NEMOURS AND COMPANY, priority 2012, dated 2016).
Where two headings read alike, the source gives them in different places.

Assays:
Type in all cases: in vivo
[1] = system: sedge, umbrella (small-flower umbrella sedge, Cyperus difformis); assay: Test C flooded paddy test: sedge, umbrella; details: scale 0 to 100 (0 no effect, 100 complete control); for pest or weed control at 62 g/ha / pest or weed control at 125 g/ha / pest or weed control at 250 g/ha / pest or weed control at 31 g/ha: Cyperus difformis, read-out: Plant response rating, Sedge, Umbrella
Outline: (§1)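 Rating: visual, 0–100 (100 = complete control), versus untreated controls after 13 to 15 greenhouse days. Treatment went into paddy water held at 3 cm over the soil, on plants grown to two leaves.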

[2] = system: barnyardgrass (Echinochloa crus-galli); assay: Test C flooded paddy test: barnyardgrass; details: scale 0 to 100 (0 no effect, 100 complete control); for pest or weed control at 62 g/ha / pest or weed control at 125 g/ha / pest or weed control at 250 g/ha / pest or weed control at 31 g/ha: Echinochloa crus-galli, read-out: Plant response rating, Barnyardgrass
Outline: as §1

[3] = system: surinam grass (Brachiaria decumbens); assay: Test C pre-/postemergence: surinam grass
Text: (§2) Seeds of plant species selected from blackgrass (Alopecurus myosuroides), bromegrass, downy (downy bromegrass, Bromus tectorum), foxtail, green (green foxtail, Setaria viridis), ryegrass, Italian (Italian ryegrass, Lolium multiflorum), winter wheat (Triticum aestivum), wild oat (Avena fatua), galium (catchweed bedstraw, Galium aparine), bermudagrass (Cynodon dactylon), surinam grass (Brachiaria decumbens), cocklebur (common cocklebur, Xanthium strumarium), corn (Zea mays), large crabgrass (Digitaria sanguinalis), woolly cupgrass (Eriochloa villosa), foxtail, giant (giant foxtail, Setaria faberii), goosegrass (Eleusine indica), johnsongrass (Sorghum halepense), kochia (Kochia scoparia), lambsquarters (Chenopodium album), morningglory (Ipomoea coccinea), nightshade (eastern black nightshade, Solanum ptycanthum), nutsedge, yellow (yellow nutsedge, Cyperus esculentus), pigweed (Amaranthus retroflexus), ragweed (common ragweed, Ambrosia elation), soybean (Glycine max), common (oilseed) sunflower (Helianthus annuus), Russian thistle (Salsola kali) and velvetleaf (Abutilon theophrasti) were planted into a blend of loam soil and sand and treated preemergence with test chemicals formulated in a non-phytotoxic solvent mixture which included a surfactant.
(§3) At the same time, plants selected from these crop and weed species and also barley (winter barley, Hordeum vulgare), canarygrass (Phalaris minor), chickweed (common chickweed, Stellaria media) windgrass (Apera spica-venti) and deadnettle (henbit deadnettle, Lamium amplexicaule) were planted in pots containing Redi-Earth® planting medium (Scotts Company, 14111 Scottslawn Road, Marysville, Ohio 43041) comprising spaghnum peat moss, vermiculite, wetting agent and starter nutrients and treated with postemergence applications of test chemicals formulated in the same manner. Plants ranged in height from 2 to 18 cm (1- to 4-leaf stage) for postemergence treatments.
(§4) Treated plants and controls were maintained in a greenhouse for 13 to 15 days, after which time all species were compared to controls and visually evaluated. Plant response ratings, summarized in Table C, are based on a scale of 0 to 100 where 0 is no effect and 100 is complete control. A dash (-) response means no test result.

[4] = system: woolly cupgrass (Eriochloa villosa); assay: Test C pre-/postemergence: woolly cupgrass
Text: as §2, §3, §4

[5] = system: bermudagrass (Cynodon dactylon); assay: Test C pre-/postemergence: bermudagrass
Text: as §2, §3, §4

[6] = Flood (flooded paddy test), 62 g ai/ha, visual rating after 13 to 15 days
[7] = Flood (flooded paddy test), 125 g ai/ha, visual rating after 13 to 15 days
[8] = Flood (flooded paddy test), 250 g ai/ha, visual rating after 13 to 15 days
[9] = Postemergence, 31 g ai/ha, scale 0 to 100 (0 no effect, 100 complete control)
[10] = Postemergence, 62 g ai/ha, scale 0 to 100 (0 no effect, 100 complete control)
[11] = Postemergence, 125 g ai/ha, scale 0 to 100, 0 no effect, 100 complete control
[12] = Postemergence, 250 g ai/ha, scale 0 to 100
[13] = Preemergence, 31 g ai/ha, scale of 0 to 100, 0 is no effect, 100 is complete control
[14] = Preemergence, 62 g ai/ha, scale of 0 to 100, 0 is no effect, 100 is complete control
[15] = Preemergence, 125 g ai/ha, scale 0 to 100, 0 no effect, 100 complete control
[16] = Preemergence, 250 g ai/ha, scale 0 to 100, 0 no effect, 100 complete control
[17] = Postemergence, 16 g ai/ha, scale 0 to 100, 0 no effect, 100 complete control

With COc1nn(-c2ccc(C(F)(F)F)cc2)nc1Cn1ccc(C(F)(F)F)n1 [Compound 17, 4-methoxy-2-[4-(trifluoromethyl)phenyl]-5-[[3-(trifluoromethyl)-1H-pyrazol-1-yl]methyl]-2H-1,2,3-triazole] the pest or weed control at 62 g/ha [1, 6] was 20%, the pest or weed control at 125 g/ha [1, 7] was 30% and the pest or weed control at 250 g/ha [1, 8] was 75%. The pest or weed control at 31 g/ha ([1]; Flood, 31 g ai/ha) was 0%, the pest or weed control at 62 g/ha [2, 6] was 20% and the pest or weed control at 125 g/ha [2, 7] was 40%. It also gave a pest or weed control at 250 g/ha [2, 8] of 45% and a pest or weed control at 31 g/ha ([2]; Flood, 31 g ai/ha) of 0%.

In the case of Cc1nn(-c2ccc(C(F)(F)F)cc2)nc1Cc1ccnc(C(F)(F)F)c1 [Compound 47, 4-[[5-methyl-2-[4-(trifluoromethyl)phenyl]-2H-1,2,3-triazol-4-yl]methyl]-2-(trifluoromethyl)pyridine], the “Plant response rating, Surinam Grass” value [3, 9] was 5, the “Plant response rating, Surinam Grass” value [3, 10] was 10 and the “Plant response rating, Surinam Grass” value [3, 11] was 60. The “Plant response rating, Surinam Grass” value [3, 12] was 60, the “Plant response rating, Surinam Grass” value [3, 13] was 5 and the “Plant response rating, Surinam Grass” value [3, 14] was 20. For the same compound, the “Plant response rating, Surinam Grass” value [3, 15] was 65, the “Plant response rating, Surinam Grass” value [3, 16] was 65 and the “Plant response rating, Cupgrass, Woolly” value [4, 9] was 55. For the same compound, the “Plant response rating, Cupgrass, Woolly” value [4, 10] was 65, the “Plant response rating, Cupgrass, Woolly” value [4, 11] was 80 and the “Plant response rating, Cupgrass, Woolly” value [4, 12] was 90. For the same compound, the “Plant response rating, Cupgrass, Woolly” value [4, 13] was 45, the “Plant response rating, Cupgrass, Woolly” value [4, 14] was 80 and the “Plant response rating, Cupgrass, Woolly” value [4, 15] was 95. For the same compound, the “Plant response rating, Cupgrass, Woolly” value [4, 16] was 98, the pest or weed control at 62 g/ha [1, 6] was 85% and the pest or weed control at 125 g/ha [1, 7] was 90%. For the same compound, the pest or weed control at 250 g/ha [1, 8] was 90%, the pest or weed control at 31 g/ha ([1]; Flood, 31 g ai/ha) was 75% and the “Plant response rating, Bermudagrass” value [5, 9] was 10. For the same compound, the “Plant response rating, Bermudagrass” value [5, 10] was 20, the “Plant response rating, Bermudagrass” value [5, 11] was 55 and the “Plant response rating, Bermudagrass” value [5, 12] was 75. For the same compound, the “Plant response rating, Bermudagrass” value [5, 13] was 100, the “Plant response rating, Bermudagrass” value ([5]; Preemergence, 62 g ai/ha, scale 0 to 100, 0 no effect, 100 complete control) was 100 and the “Plant response rating, Bermudagrass” value [5, 15] was 100. The “Plant response rating, Bermudagrass” value [5, 16] was 100, the pest or weed control at 62 g/ha [2, 6] was 50% and the pest or weed control at 125 g/ha [2, 7] was 80%. It also gave a pest or weed control at 250 g/ha [2, 8] of 80% and a pest or weed control at 31 g/ha ([2]; Flood, 31 g ai/ha) of 40%.

With Cc1nn(-c2ccc(C(F)(F)F)cc2)nc1Cc1cccc(C(F)(F)F)c1 [Compound 124] the “Plant response rating, Surinam Grass” value [3, 17] was 5, the “Plant response rating, Surinam Grass” value [3, 9] was 10 and the “Plant response rating, Surinam Grass” value [3, 10] was 15. The “Plant response rating, Surinam Grass” value [3, 11] was 20, the “Plant response rating, Cupgrass, Woolly” value [4, 17] was 5 and the “Plant response rating, Cupgrass, Woolly” value [4, 9] was 5. The “Plant response rating, Cupgrass, Woolly” value [4, 10] was 10, the “Plant response rating, Cupgrass, Woolly” value [4, 11] was 20 and the “Plant response rating, Sedge, Umbrella” value [1, 7] was 90. The “Plant response rating, Sedge, Umbrella” value [1, 8] was 90, the “Plant response rating, Sedge, Umbrella” value ([1]; Flood, 31 g ai/ha) was 50 and the “Plant response rating, Sedge, Umbrella” value ([1]; Flood, 62 g ai/ha) was 90. The “Plant response rating, Bermudagrass” value [5, 17] was 5, the “Plant response rating, Bermudagrass” value [5, 9] was 25 and the “Plant response rating, Bermudagrass” value [5, 10] was 45. For the same compound, the “Plant response rating, Bermudagrass” value [5, 11] was 60, the “Plant response rating, Barnyardgrass” value [2, 7] was 50 and the “Plant response rating, Barnyardgrass” value [2, 8] was 50. The “Plant response rating, Barnyardgrass” value ([2]; Flood, 31 g ai/ha) was 20 and the “Plant response rating, Barnyardgrass” value ([2]; Flood, 62 g ai/ha) was 40.

For CCc1nn(-c2ccc(C(F)(F)F)cc2)nc1Oc1cccc(OC(F)(F)F)c1 [Compound 125, 4-ethyl-5-[3-(trifluoromethoxy)phenoxy]-2-[4-(trifluoromethyl)phenyl]-2H-1,2,3-triazole], the pest or weed control at 125 g/ha [1, 7] was 80%, the pest or weed control at 250 g/ha [1, 8] was 85% and the pest or weed control at 31 g/ha ([1]; Flood, 31 g ai/ha) was 0%. The pest or weed control at 62 g/ha ([1]; Flood, 62 g ai/ha) was 40%, the pest or weed control at 125 g/ha [2, 7] was 0% and the pest or weed control at 250 g/ha [2, 8] was 10%. The pest or weed control at 31 g/ha ([2]; Flood, 31 g ai/ha) was 0% and the pest or weed control at 62 g/ha ([2]; Flood, 62 g ai/ha) was 0%.

In the case of Fc1ccc(-n2nc(Cc3ccnc(C(F)(F)F)c3)c(OCC(F)(F)F)n2)cc1 [Compound 142], the “Plant response rating, Surinam Grass” value [3, 9] was 40, the “Plant response rating, Surinam Grass” value [3, 10] was 40 and the “Plant response rating, Surinam Grass” value [3, 11] was 45. The “Plant response rating, Surinam Grass” value [3, 12] was 50, the “Plant response rating, Surinam Grass” value [3, 13] was 60 and the “Plant response rating, Surinam Grass” value [3, 14] was 75. The “Plant response rating, Surinam Grass” value [3, 15] was 98, the “Plant response rating, Surinam Grass” value [3, 16] was 98 and the “Plant response rating, Cupgrass, Woolly” value [4, 9] was 40. For the same compound, the “Plant response rating, Cupgrass, Woolly” value [4, 10] was 40, the “Plant response rating, Cupgrass, Woolly” value [4, 11] was 75 and the “Plant response rating, Cupgrass, Woolly” value [4, 12] was 85. For the same compound, the “Plant response rating, Cupgrass, Woolly” value [4, 13] was 55, the “Plant response rating, Cupgrass, Woolly” value [4, 14] was 70 and the “Plant response rating, Cupgrass, Woolly” value [4, 15] was 95. The “Plant response rating, Cupgrass, Woolly” value [4, 16] was 98, the “Plant response rating, Bermudagrass” value [5, 9] was 15 and the “Plant response rating, Bermudagrass” value [5, 10] was 70. The “Plant response rating, Bermudagrass” value [5, 11] was 75, the “Plant response rating, Bermudagrass” value [5, 12] was 85 and the “Plant response rating, Bermudagrass” value [5, 13] was 98. The “Plant response rating, Bermudagrass” value [5, 14] was 98, the “Plant response rating, Bermudagrass” value [5, 15] was 98 and the “Plant response rating, Bermudagrass” value [5, 16] was 98.
